Test system: LPS-induced release of endogenous TNFα from human peripheral blood mononuclear cells (PBMCs)
Assay: Example 13: ELISA-based TNFα release assay, LPS-induced, PBMCs from healthy donor
Type: cell-based
Conditions: 10 μM final concentration, LPS 50 ng/ml, delta Buffer stimulated vs unstimulated = 100% inhibition; for inhibition at 10 µM: Homo sapiens, PBMC
Method: In the following study, ELISA-based TNFα release assay was performed to verify the inhibitory effects of Compounds 1, 2, 3, 4, 5, and 7 on LPS-induced release of endogenous TNFα from primary human material obtained from healthy donor using peripheral blood mononuclear cells (PBMCs). The ELISA-based TNFα release assay that was used in this example is described below.
In brief, on day 1, Nunc black MaxiSorp® 96-well plates (Thermo Fisher Scientific, USA) were coated overnight with 100 μl per well of mouse anti-human TNFα capture antibody (provided as part of the DuoSet ELISA kit) at 4 μg/ml TBS at 4° C. On day 2, the capture antibody solution was removed and MaxiSorp® plates were blocked with 300 μl per well of TBS, 1% BSA at room temperature for 3 hours. Meanwhile, 20,000 PBMCs from healthy donor (SciRhom GmbH, Germany) in 80 μl of normal growth medium were seeded in each well of Greiner CELLSTAR V-bottom 96-well plates (Thermo Fisher Scientific, USA) and pre-incubated with 20 μl per well of standard growth medium supplemented with Batimastat (BB94, Abcam, UK) at 50 μM as positive control (for a final concentration of 10 μM in the resulting 100 μl sample volume), compounds of the invention at 50 μM (for a final concentration of 10 μM in the resulting 100 μl sample volume) and in case of Buffer stimulated and unstimulated controls with DMSO (Carl Roth, Germany) at 50 μM (for a final concentration of 10 μM in the resulting 100 μl sample volume) at 37° C., 5% CO2 for 30 minutes. Subsequently, cells (except those for unstimulated controls) were stimulated with 20 μl per well of LPS (Sigma-Aldrich, USA) at 300 ng/ml growth medium for a final concentration of 50 ng/ml at 37° C., 5% CO2 for 2 hours. Afterwards, the 96-well plates were centrifuged to pellet cells. In parallel, blocking buffer was removed from the MaxiSorp® plates and plates were washed 4 times with 350 μl per well of TBS-T (Carl Roth, Germany) on a 96-head plate washer (Tecan Group, Switzerland). To avoid drying-up, 30 μl of TBS were added to each well of the MaxiSorp® plates immediately, followed by the transfer of 70 μl of cell-free supernatant per sample. Additionally, 100 μl of recombinant human TNFα protein (provided as part of the DuoSet ELISA kit) diluted in TBS at defined concentrations were added to the plate as standard references. Thereafter, 100 μl per well of biotinylated goat anti-human TNFα detection antibody (provided as part of the DuoSet ELISA kit) at 50 ng/ml TBS were added and, protected from direct light, plates were incubated at room temperature for 2 hours. After 4 times washing with 350 μl per well of TBS-T (Carl Roth, Germany) on a 96-head plate washer (Tecan Group, Switzerland) and careful removal of all buffer traces after the fourth cycle, 100 μl of streptavidin-AP (R&D Systems, USA) diluted 1:10,000 in TBS were added to each well and, again protected from direct light, plates were incubated at room temperature for 30 minutes. Following another round of 4 times washing with 350 μl per well of TBS-T (Carl Roth, Germany) on a 96-head plate washer (Tecan Group, Switzerland) and careful removal of all buffer traces after the fourth cycle, 100 μl of AttoPhos substrate solution (Promega, USA) was added for incubation in the dark at room temperature for 1 hour. Using an infinite M1000 PRO (Tecan Group, Switzerland) microplate reader, the fluorescence of each well was collected at an excitation wavelength of 435 nm and an emission wavelength of 555 nm.
The delta between Buffer stimulated and Buffer unstimulated was defined 100% inhibition.

For `CNC(=O)[C@H](Cc1ccccc1)NC(=O)[C@H](CC(C)C)[C@H](CSc1cccs1)C(=O)NO` [Batimastat, reference compound], the “inhibition of LPS-induced release of TNFα from human PBMCs” value (2 hours) was 114.9% and the inhibition at 10 µM (2 h) was 99.5%.
`CCC(=O)NCCc1c(/C=C2/C(=O)NC(=O)N(c3ccc(C)cc3C)C2=O)[nH]c2ccccc12` [Compound 1] was tested, and the inhibition at 10 µM (2 hours) was 99.5%.
`CCOC(=O)c1ccc(Nc2nc3nonc3n3nnnc23)cc1` [Compound 2] showed an inhibition at 10 µM (2 h) of 98.6%.
Work on `O=C(c1c(Cl)cccc1Cl)N1CCC(Cc2ccc(F)cc2)CC1` [Compound 3] yielded an inhibition at 10 µM (2 h) of 76.3%.
With `Cc1c(C(=O)NCc2cccs2)sc(=O)n1Cc1ccccc1` [Compound 4] the inhibition at 10 µM (2 h) was 42%.
Compound `Cc1c(C(=O)NCc2cccs2)sc(=O)n1Cc1ccccc1F` [Compound 5] has an inhibition at 10 µM (2 h) of 51.3%.
Compound `Cc1c(C(=O)NCc2ccco2)sc(=O)n1Cc1ccccc1F` [Compound 7] has an inhibition at 10 µM (2 h) of 72.5%.
